Where two headings read alike, the source gives them in different places.
Assays:
Assay type in all cases: in vivo, male Carworth Farms No. 1 (CF1) mice
[1] = tested on: pentylenetetrazol seizures; assay: subcutaneous pentylenetetrazol (scMet) test, Phase I, mice ip; conditions: Mus musculus, mice ip
Experimental: (§1) Initial evaluations for anticonvulsant activity include phases I, VIA and VIB test procedures. These tests are performed intraperitoneally in male Carworth Farms No. 1 (CF1) mice, weighing 18-25 g (Phase I) or orally in male Sprague-Dawley rats, weighing 100-150 g (Phases VIA and VIB). The evaluation is based on three tests: maximal electroshock (MES), subcutaneous (scMet), and the rotorod test for neurological toxicity (Tox). (a) Anticonvulsant Screening Project, Antiepileptic Drug Development Program, National Institutes of Health, DHEW Publ (NIH)(U.S.) 1978, NIH 78-1093. (b) Porter, R. J.; Cereghino, J. J.; Gladding, G. D.; Hessie, B. J.; Kupferberg, H. J.; Scoville, B.; White, B. G. Antiepileptic drug development program. Cleveland Clin. Q. 1984, 51, 293-305. (c) Krall, R. L.; Penry, J. K.; White, B. G.; Kupferberg, H. J.; Swinyard, E. A. Antiepileptic drug development: II. Anticonvulsant drug screening. Epilepsia 1978, 19, 400-428. In the MES test, maximal electroshock seizures are elicited with a 60- cycle alternating current of 50 mA intensity (5-7 times that necessary to elicit minimal electroshock seizures) delivered via corneal electrodes for 0.2 seconds. A drop of 0.9% saline is placed on the eye prior to application of the electrodes in order to […]. Abolition of the hind limb tonic extension component of the seizure is defined as protection and results are expressed as the number of animals protected/the number of animals tested.
In the sc MET test, eighty-five mg/kg of pentylenetetrazol, which induces seizures in more than 95% of mice, is administered as a 0.5% solution subcutaneously in the posterior midline. The animal is observed for 30 minutes. Failure to observe even a threshold seizure (a single episode of clonic spasms of at least 5 seconds duration) is defined as protection and the results are expressed as the number of animals protected/ the number of animals tested. […]

[2] = tested on: maximal electroshock seizures; assay: maximal electroshock (MES) test, Phase I, mice ip; conditions: for responders at 30 mg/kg / responders at 100 mg/kg / responders at 300 mg/kg / responders at 10 mg/kg: Mus musculus
Experimental: as §1
In phase I, compounds are suspended in 0.5% aqueous methylcellulose and are administered intraperitoneally at three dosage levels (30, 100, and 300 mg/kg) with anticonvulsant activity and motor impairment noted 30 min and 4 h (and in some cases 2 h and 6 h) after administration.

neurotoxicity (rotorod) = assay: rotorod test for neurological toxicity (Tox), Phase I, mice ip
Experimental: as §1
The rotorod test is used to evaluate neurotoxicity. The animal is placed on a 1 inch diameter knurled plastic rod rotating at 6 rpm. Normal mice can remain on a rod rotating at this speed indefinitely. […]

[3] = 0.5 h, 30 min, read-out: scMet 30 min
[4] = 0.5 h, 30 min, read-out: scMet 30 min (converted)
[5] = 4 h, read-out: scMet 4 h (converted)
[6] = 100 mg/kg, 4 h, read-out: MES 4 h (converted)
[7] = 4 h, read-out: MES 4 h (converted)
[8] = 0.5 h, 30 min, read-out: MES 30 min (converted)
[9] = 0.5 h, 100 mg/kg, 30 min, read-out: MES 30 min (converted)

| SMILES | responders at 30 mg/kg [1, 3] | responders at 100 mg/kg [1, 3] | responders at 300 mg/kg [1, 4] | responders at 30 mg/kg ([1]; 4 h, read-out: scMet 4 h) | responders at 100 mg/kg ([1]; 4 h, read-out: scMet 4 h) | responders at 300 mg/kg [1, 5] | responders at 30 mg/kg ([2]; 4 h, read-out: MES 4 h) | responders at 100 mg/kg [2, 6] | responders at 300 mg/kg [2, 7] | responders at 30 mg/kg [2, 8] | responders at 100 mg/kg [2, 9] | responders at 300 mg/kg [2, 8] | Tox 30 min (neurotoxicity (rotorod); 30 mg/kg) | Tox 4 h (neurotoxicity (rotorod); 30 mg/kg) | Tox 30 min (neurotoxicity (rotorod); 100 mg/kg) | Tox 4 h (neurotoxicity (rotorod); 100 mg/kg) | Tox 30 min (neurotoxicity (rotorod); 300 mg/kg) | Tox 4 h (neurotoxicity (rotorod); 300 mg/kg) | also measured |
| --- | --- | --- | --- | --- | --- | --- | --- | --- | --- | --- | --- | --- | --- | --- | --- | --- | --- | --- | --- |
| C[C@@H]1CC2=C(Sc3ccccc3N2)C(=O)[C@H]1C(=O)OC(C)(C)C (relative stereo) [Compound 4c, 3-Carbo-ter-butoxy-2-methyl-2,3-dihydro-1H-phenothiazin-4[10H]-one] | 0% | 0% | 0% | 0% | 0% | 0% | 0% | 33.3% | 100% | 0% | 0% | 0% | 0/4 | 0/2 | 0/8 | 0/4 | 0/4 | 0/2 | MES animals protected at 2 h ([2]; 100 mg/kg, 2 h): 1/3; MES animals protected at 6 h ([2]; 100 mg/kg, 6 h): 0/3; toxic at 2 h (neurotoxicity (rotorod); 100 mg/kg, 2 h): 1/3; toxic at 6 h (neurotoxicity (rotorod); 100 mg/kg, 6 h): 0/3 |
| C[C@@H]1CC2=C(Sc3cc(Cl)ccc3N2)C(=O)[C@H]1C(=O)OC(C)(C)C (relative stereo) [Compound 4g, 7-Chloro-3-carbo-ter-butoxy-2-methyl-2,3-dihydro-1H-phenothiazin-4[10H]-one] | 0% | 0% | 0% | 0% | 0% | 0% | 0% | 33.3% | 100% | 0% | 0% | 0% | 0/4 | 0/2 | 0/8 | 0/4 | 0/4 | 0/2 | – |
| COC(=O)[C@@H]1C(=O)C2=C(C[C@H]1C)Nc1ccc(C)cc1S2 (relative stereo) [Compound 4h] | 0% | 0% | 0% | 0% | 0% | – | 0% | 33.3% | 100% | 0% | 0% | 100% | 0/4 | 0/2 | 0/8 | 0/4 | 0/3 | 0/1 | MES animals protected at 0.25 h ([2]; 100 mg/kg, 0.25 h): 2/3 |
| CCOC(=O)[C@@H]1C(=O)C2=C(C[C@H]1C)Nc1ccc(Br)cc1S2 (relative stereo) [Compound 4k, 7-Bromo-3-carbethoxy-2-methyl-2,3-dihydro-1H-phenothiazin-4[10H]-one] | 0% | 0% | 0% | 0% | 0% | 0% | 0% | 0% | 100% | 0% | 0% | 100% | 0/8 | 0/4 | 0/4 | 0/2 | 0/8 | 0/4 | responders at 10 mg/kg [1, 3]: 0%; responders at 10 mg/kg ([1]; 4 h, read-out: scMet 4 h): 0%; responders at 10 mg/kg ([2]; 4 h, read-out: MES 4 h): 0%; responders at 10 mg/kg ([2]; 0.5 h, 30 min, read-out: MES 30 min): 0%; Tox 30 min (neurotoxicity (rotorod); 10 mg/kg): 0/4; Tox 4 h (neurotoxicity (rotorod); 10 mg/kg): 0/2 |
